Measured values: ChEMBL document CHEMBL6121032, “Mining Druggable Sites in Influenza A Hemagglutinin: Binding of the Pinanamine-Based Inhibitor M090” (ACS Med Chem Lett, 2025)

System: Influenza A virus
Assay: Antiviral activity against Influenza virus A/WSN/33 expressing M2 S31N mutant channel infected in MDCK cells by plaque reduction assay
Assay type: functional, organism-based

For `Brc1ccc(CNC23CC4CC(CC(C4)C2)C3)s1`, the EC50 was 1800 µM.
